Experiment [1] deals with T1, Replicative DNA helicase DnaB (Mycobacterium tuberculosis, UniProt P9WMR3).
T1 sequence (P9WMR3 whole entry): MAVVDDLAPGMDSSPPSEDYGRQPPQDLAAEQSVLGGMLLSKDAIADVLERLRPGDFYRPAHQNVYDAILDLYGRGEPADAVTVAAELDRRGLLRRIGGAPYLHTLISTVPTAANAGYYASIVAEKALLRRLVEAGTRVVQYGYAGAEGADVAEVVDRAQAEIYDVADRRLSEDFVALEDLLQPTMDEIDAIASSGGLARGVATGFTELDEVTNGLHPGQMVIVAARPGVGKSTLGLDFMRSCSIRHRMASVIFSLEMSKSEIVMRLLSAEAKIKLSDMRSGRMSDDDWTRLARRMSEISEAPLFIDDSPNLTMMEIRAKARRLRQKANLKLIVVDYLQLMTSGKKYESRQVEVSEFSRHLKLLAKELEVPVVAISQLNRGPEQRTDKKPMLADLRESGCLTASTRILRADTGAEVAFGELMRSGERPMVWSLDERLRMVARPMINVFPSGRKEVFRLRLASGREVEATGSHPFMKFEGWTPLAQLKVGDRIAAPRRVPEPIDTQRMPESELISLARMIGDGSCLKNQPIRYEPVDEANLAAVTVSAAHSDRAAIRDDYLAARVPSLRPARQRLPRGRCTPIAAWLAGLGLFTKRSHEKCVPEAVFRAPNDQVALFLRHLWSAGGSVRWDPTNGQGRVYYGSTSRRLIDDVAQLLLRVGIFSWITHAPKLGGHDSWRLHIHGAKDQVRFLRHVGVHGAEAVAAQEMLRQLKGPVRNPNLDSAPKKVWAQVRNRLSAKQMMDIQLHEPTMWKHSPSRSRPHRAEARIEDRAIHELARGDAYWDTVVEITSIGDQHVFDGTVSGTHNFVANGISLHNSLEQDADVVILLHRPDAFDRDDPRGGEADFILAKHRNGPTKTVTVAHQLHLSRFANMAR
The experiment in a line: DnaB intein splicing inhibitors, dose response, biochemical, cell-free fluorescence (AID 449749). It is filed as functional.

The next experiment concerns the target T2, Protein RecA (Mycobacterium tuberculosis, UniProt P9WHJ3).
T2 sequence (P9WHJ3 whole entry): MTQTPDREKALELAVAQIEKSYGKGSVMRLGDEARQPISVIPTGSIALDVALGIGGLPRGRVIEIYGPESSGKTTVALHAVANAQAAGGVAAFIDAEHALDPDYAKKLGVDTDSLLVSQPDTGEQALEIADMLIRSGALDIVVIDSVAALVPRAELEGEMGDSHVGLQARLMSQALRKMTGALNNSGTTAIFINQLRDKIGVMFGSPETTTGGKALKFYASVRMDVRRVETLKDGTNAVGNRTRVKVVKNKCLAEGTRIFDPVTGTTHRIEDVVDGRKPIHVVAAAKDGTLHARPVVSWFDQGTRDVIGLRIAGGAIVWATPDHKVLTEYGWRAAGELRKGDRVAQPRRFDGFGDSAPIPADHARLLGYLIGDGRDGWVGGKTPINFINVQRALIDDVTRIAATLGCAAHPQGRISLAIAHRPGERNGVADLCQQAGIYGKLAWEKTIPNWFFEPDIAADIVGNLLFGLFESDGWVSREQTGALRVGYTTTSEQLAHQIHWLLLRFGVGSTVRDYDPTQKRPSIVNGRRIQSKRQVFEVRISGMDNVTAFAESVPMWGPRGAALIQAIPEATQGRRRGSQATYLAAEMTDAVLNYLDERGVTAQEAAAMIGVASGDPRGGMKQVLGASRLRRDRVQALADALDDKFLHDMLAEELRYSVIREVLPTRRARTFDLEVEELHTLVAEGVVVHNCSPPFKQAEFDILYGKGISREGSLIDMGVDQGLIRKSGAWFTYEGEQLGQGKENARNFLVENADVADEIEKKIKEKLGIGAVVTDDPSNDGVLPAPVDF
The experiment in a line: Fluorescence Cell-Free Homogeneous Dose Retest to Identify Inhibitors of RecA-Intein Splicing Activity. [Related pubchem assays (depositor defined):AID2097, AID2223, AID489010, AID492950]. Format: functional.

The target in experiment [2] is Mitochondrial peptide methionine sulfoxide reductase (Bos taurus, UniProt P54149). The experiment in a line: Absorbance-based biochemical high throughput dose response assay for activators of Methionine sulfoxide reductase A (MsrA). Format: functional.
Mitochondrial peptide methionine sulfoxide reductase, sequence (P54149 whole entry): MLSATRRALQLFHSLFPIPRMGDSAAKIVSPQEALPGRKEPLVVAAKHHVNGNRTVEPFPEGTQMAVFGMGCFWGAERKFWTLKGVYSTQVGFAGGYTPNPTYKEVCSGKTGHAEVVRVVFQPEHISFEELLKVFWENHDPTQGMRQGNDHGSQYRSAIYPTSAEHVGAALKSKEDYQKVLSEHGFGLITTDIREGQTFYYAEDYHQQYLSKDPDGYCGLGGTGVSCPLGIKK
Experiment [3] concerns the target T3, Insulin-degrading enzyme (Homo sapiens, UniProt P14735).
T3 sequence (P14735 whole entry): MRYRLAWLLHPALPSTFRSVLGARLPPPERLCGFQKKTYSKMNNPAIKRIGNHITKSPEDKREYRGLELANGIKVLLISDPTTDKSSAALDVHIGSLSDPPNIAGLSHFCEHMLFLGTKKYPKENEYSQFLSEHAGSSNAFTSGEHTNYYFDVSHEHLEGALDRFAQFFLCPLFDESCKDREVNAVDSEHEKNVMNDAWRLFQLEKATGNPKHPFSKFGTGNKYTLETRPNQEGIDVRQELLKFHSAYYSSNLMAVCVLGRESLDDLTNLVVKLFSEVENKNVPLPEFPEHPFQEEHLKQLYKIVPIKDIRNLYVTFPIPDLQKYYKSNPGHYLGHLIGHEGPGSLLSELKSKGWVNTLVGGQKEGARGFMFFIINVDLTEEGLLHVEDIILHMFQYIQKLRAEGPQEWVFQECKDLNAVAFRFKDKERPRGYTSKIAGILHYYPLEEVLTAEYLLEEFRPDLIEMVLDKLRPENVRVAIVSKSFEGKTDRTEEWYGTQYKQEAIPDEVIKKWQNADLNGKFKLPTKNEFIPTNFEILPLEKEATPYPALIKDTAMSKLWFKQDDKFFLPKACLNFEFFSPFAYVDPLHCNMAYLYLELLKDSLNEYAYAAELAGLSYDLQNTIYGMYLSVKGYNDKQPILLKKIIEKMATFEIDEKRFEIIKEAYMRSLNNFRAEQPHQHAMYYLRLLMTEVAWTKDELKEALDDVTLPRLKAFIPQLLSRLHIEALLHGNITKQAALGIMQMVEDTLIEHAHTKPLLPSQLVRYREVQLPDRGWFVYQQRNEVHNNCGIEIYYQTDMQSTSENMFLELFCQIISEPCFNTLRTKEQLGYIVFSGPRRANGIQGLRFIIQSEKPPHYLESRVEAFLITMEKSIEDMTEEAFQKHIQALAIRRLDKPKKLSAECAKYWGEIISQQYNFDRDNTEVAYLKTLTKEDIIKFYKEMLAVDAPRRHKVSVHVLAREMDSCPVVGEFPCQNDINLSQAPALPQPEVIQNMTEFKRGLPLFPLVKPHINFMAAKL
The experiment in a line: activators of recombinant IDE enzyme, dose response, counter-screen for IDE activator project, biochemical, fluorescence polarization (AID 588681).

For experiment [4], the target named is T3, Insulin-degrading enzyme. The experiment can be described thus: activators of endogenous IDE in HEK cells, dose response, cell-based, fluorescence polarization (AID 588439). It is filed as functional. Background: Polarisation of emitted light reports the rotation of a fluorescent probe.
Experiment [5] concerns HEK293. The experiment can be described thus: optical interference in Abeta FP readout, dose response, artefact control for IDE activator project, biochemical, fluorescence polarization (AID 588442). Format: functional, cell-based. The settings on record: Homo sapiens.
The test system of another experiment is Streptococcus. The experiment in a line: Group A Streptococcus viability loss, dose response, counter-screen for streptokinase expression inhibitor project, luminescence, BacTiterGlo (AID 1915).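 Also: potency for reduction of bacterial viability or growth.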 Format: functional, organism-based. In general terms: Counterscreens check selectivity or assay interference.
Experiment [6] concerns HEK293. The experiment in a line: HEK cell cytotoxicity by LDH release, dose response, cytotoxicity control for IDE activator project, fluorescence, HEK cells (AID 588440).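 Also: cytotoxicity by LDH release measuring loss of membrane integrity.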 The settings on record: Homo sapiens. It is filed as functional, cell-based. (In general: LDH in the medium is a marker of cell lysis.)
A further experiment has as its target T4, Streptokinase A (Streptococcus pyogenes serotype M1, UniProt P10520).
T4 sequence (P10520 whole entry): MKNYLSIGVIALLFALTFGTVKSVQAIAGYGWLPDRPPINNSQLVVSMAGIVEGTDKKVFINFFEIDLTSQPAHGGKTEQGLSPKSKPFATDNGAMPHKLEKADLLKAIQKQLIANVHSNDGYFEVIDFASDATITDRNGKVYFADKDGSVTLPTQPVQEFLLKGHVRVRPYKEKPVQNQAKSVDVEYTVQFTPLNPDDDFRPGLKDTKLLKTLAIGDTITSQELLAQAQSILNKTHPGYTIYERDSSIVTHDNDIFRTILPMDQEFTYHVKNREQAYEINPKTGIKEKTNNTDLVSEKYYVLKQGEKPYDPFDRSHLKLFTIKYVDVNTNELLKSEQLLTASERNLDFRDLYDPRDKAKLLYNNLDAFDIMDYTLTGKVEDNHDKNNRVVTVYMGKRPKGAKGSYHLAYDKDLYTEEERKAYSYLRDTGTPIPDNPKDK
The experiment in a line: S. pyogenes streptokinase expression inhibitors, potency, dose response, plasminogen activation absorbance, OD405 (AID 1914).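 Also: secreted streptokinase activity via plasminogen activation per viability signal from cell pellet.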 It is filed as functional, Streptococcus pyogenes M1 GAS.

In experiment [7] the target is Heat shock protein HSP 90-alpha (Homo sapiens, UniProt P07900). It is filed as functional, organism-based.
In experiment [8] the test system is Streptococcus sp. 'group A'. The experiment can be described thus: growth inhibition of control SK(-) GAS strain, dose response, counter-screen for streptokinase expression inhibitor project, luminescence, kanamycin, BacTiterGlo, confirmation (AID 1900). It is filed as functional, organism-based.

Calls of active or inactive are those of the source. Bounds are passed on as bounds.

We go through two molecules from ChEMBL document CHEMBL1201862, “PubChem BioAssay data set” (2004).

Broadly, the AC50 is the concentration giving half of the maximal activity seen. As a reminder, the EC50 is the midpoint of the concentration-response curve. By IC50 is commonly meant the concentration at which inhibition is half-maximal.

With `O=C1c2ccccc2C(=O)c2cc(S(=O)(=O)Nc3ccccc3)ccc21`, in experiment [1], the AC50 was 29.8 µM (active). In addition, the concentration for a half-maximal effect (EC50) on Protein RecA is 12.1 µM (active); in [2] it was > 104 µM (inactive).
In the case of `Oc1cc(OCc2ccccc2)ccc1-c1[nH]ncc1-c1ccccc1`, the EC50 on Insulin-degrading enzyme [3] is > 54.7 µM (inactive); on Insulin-degrading enzyme [4] it was > 54.7 µM (inactive); in the experiment on HEK293 [5], > 55.9 µM (inactive); in the experiment on Streptococcus, 10.5 µM (active); at Streptokinase A it was > 150 µM (not active); in [8] it was 2.88 µM (active). Moreover, the IC50 in the experiment on HEK293 [6] was 16.9 µM (inactive). Besides, the AC50 in [7] is 9.12 µM (active).
